The values below come from US20230150981A1, “N-HETEROARYLALKYL-2-(HETEROCYCLYL AND HETEROCYCLYLMETHYL) ACETAMIDE DERIVATIVES AS SSTR4 AGONISTS” (Takeda Pharmaceutical Compnay Limited, priority 2020, published 2023).

The target of the first experiment is T1, SSTR4 (Homo sapiens, UniProt P31391).
T1 construct: host or cells: CHO-K1
T1 sequence (P31391 whole entry): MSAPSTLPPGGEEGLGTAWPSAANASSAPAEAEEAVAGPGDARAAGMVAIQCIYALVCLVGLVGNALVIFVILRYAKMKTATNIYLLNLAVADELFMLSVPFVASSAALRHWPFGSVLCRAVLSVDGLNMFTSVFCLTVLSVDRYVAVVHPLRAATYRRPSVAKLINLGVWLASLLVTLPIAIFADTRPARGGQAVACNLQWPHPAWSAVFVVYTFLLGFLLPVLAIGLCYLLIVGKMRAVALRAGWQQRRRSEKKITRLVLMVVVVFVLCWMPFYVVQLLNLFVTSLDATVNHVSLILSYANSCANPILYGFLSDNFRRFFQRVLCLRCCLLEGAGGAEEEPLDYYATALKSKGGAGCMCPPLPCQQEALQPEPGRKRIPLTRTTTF
As to the kind of experiment: SSTR4 I-125 somatostatin competition binding assay (CHO-K1 membranes). The following applies: competition with I-125 somatostatin, membranes from CHO-K1 overexpressing SSTR4; read-out: SSTR4 Binding pIC50 (converted). As for the experimental part: SSTR4 I-125 Somatostatin Competition Binding Assay
Membranes from CHO-K1 cells overexpressing SSTR4 are purchased from Perkin Elmer (catalog number ES-524-M400UA). Test compounds are suspended in DMSO and then diluted in assay buffer (25 mM HEPES pH 7.4, 10 mM MgCl2, 1 mM CaCl2), 0.5% BSA) plus 0.2 nM I-125 labeled somatostatin (Perkin Elmer catalog number NEX389). Fifty μL of compound/I-125 somatostatin in assay buffer are added per well to 96-well poly-propylene plate. Then 1 μg of SSTR4 membranes in 50 μL assay buffer are added per well. The Plate is incubated for 60 minutes at room temperature. FilterMat A filters (Perkin Elmer catalog number 1450-421) are pre-soaked in 0.5% PEI (Sigma catalog number P3143). The contents of the assay plate are transferred to filters with a TomTech harvester and washed 5 times with 20 mM HEPES, 100 mM NaCl. The filters are dried in a microwave oven then transferred to sample bag containing a scintillator sheet (Perkin Elmer catalog number 1450-441). The scintillator sheets are melted to filters using a heat block. The filters are then read in a MicroBeta scintillation counter. Binding Ki curves are generated using Activity Base for Screening Data Management and the results are reported as pIC50.
Turning to `Cc1cccc2c(C(C)(C)NC(=O)C[C@H]3CCCCN3C)noc12` (single isomer, unassigned) [Example 43], the IC50 was 20 nM.
As to `Cc1cccc2c(C(C)(C)NC(=O)C[C@@H]3CCCCN3C)noc12` (single isomer, unassigned) [Example 44], the IC50 is 63.1 nM.
The same measure, in the same setting: the figure for `COc1ccccc1C(C)(C)NC(=O)[C@H](C)CN1CCCC1` (single isomer, unassigned) [Example 75] is 31.6 nM; for `Cc1cccnc1OCC1(NC(=O)[C@H](C)[C@@H]2CCCN2C)CC1` (single isomer, unassigned) [Example 127] it is 126 nM.
Regarding `CN1CCC[C@H]1CC(=O)NC(C)(C)[C@@H]1CCc2ccccc2O1` (single isomer, unassigned) [Example 128], the IC50 is 316 nM.
With `CN1CCC[C@@H]1CC(=O)NC(C)(C)[C@@H]1CCc2ccccc2O1` (single isomer, unassigned) [Example 131], the IC50 is 251 nM.
Still for that read-out and setting: the figure for `C[C@@H](CN1CCC1)C(=O)NC(C)(C)c1ccccc1Cl` (single isomer, unassigned) [Example 134] is 50.1 nM; for `C[C@H](CN1CCCC1)C(=O)NC(C)(C)c1ccccc1Cl` (single isomer, unassigned) [Example 136] it is 126 nM; for `COc1ccc(C(C)(C)NC(=O)[C@H](C)CN2CCC2)cc1` (single isomer, unassigned) [Example 138] it is 126 nM.
For the compound `Cc1ccccc1C(C)(C)NC(=O)[C@H](C)CN1CCC1` (single isomer, unassigned) [Example 140], the IC50 is 50.1 nM.
Still for that read-out and setting: under `Cc1c(F)cccc1C(C)(C)NC(=O)[C@H](C)CN1CCC1` (single isomer, unassigned) [Example 142] stands 15.8 nM.
On to `Cc1cccc(C(C)(C)NC(=O)[C@@H](C)CN2CCC2)c1Cl` (single isomer, unassigned) [Example 145], for which the IC50 is 20 nM.
Still for that read-out and setting: under `COc1c(C)cccc1C(C)(C)NC(=O)[C@H](C)CN1CCC1` (single isomer, unassigned) [Example 146] stands 20 nM; under `Cc1ccc(C(C)(C)NC(=O)[C@@H](C)CN2CCC2)cc1` (single isomer, unassigned) [Example 149], 50.1 nM; under `C[C@@H](CN1CCC1)C(=O)NC1(c2ccccc2F)CC1` (single isomer, unassigned) [Example 151], 100 nM.
Same read-out and setting: the figure for `C[C@@H](CN1CCC1)C(=O)NC(C)(C)c1cccc(F)c1` (single isomer, unassigned) [Example 153] is 79.4 nM.

A further experiment concerns the target T1, SSTR4. As to the kind of experiment: Inhibition of forskolin stimulated cAMP in CHO-K1 cells overexpressing SSTR4. In kind it is cell-based. The following applies: read-out: SSTR4 Activity pEC50 (converted). The procedure, abridged:
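CHO-K1 cells overexpressing SSTR4 treated 30 min at room temperature with compound in Krebs Ringer buffer containing 0.5% BSA, 300 μM IBMX and 350 nM forskolin. Intracellular cAMP measured by HTRF LANCE Ultra (665/615 nm); pEC50 values reported.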
Consider `Cc1cccc2c(C(C)(C)NC(=O)C[C@H]3CCCCN3C)noc12` (single isomer, unassigned) [Example 43], for which the EC50 was 2 nM.
As for `Cc1cccc2c(C(C)(C)NC(=O)C[C@@H]3CCCCN3C)noc12` (single isomer, unassigned) [Example 44], the EC50 was 6.31 nM.
`COc1ccccc1C(C)(C)NC(=O)[C@H](C)CN1CCCC1` (single isomer, unassigned) [Example 75]: the EC50 is 2.51 nM.
Regarding `Cc1cccnc1OCC1(NC(=O)[C@H](C)[C@@H]2CCCN2C)CC1` (single isomer, unassigned) [Example 127], the EC50 is 7.94 nM.
For the compound `CN1CCC[C@H]1CC(=O)NC(C)(C)[C@@H]1CCc2ccccc2O1` (single isomer, unassigned) [Example 128], the EC50 was 39.8 nM.
As for `CN1CCC[C@@H]1CC(=O)NC(C)(C)[C@@H]1CCc2ccccc2O1` (single isomer, unassigned) [Example 131], the EC50 is 50.1 nM.
`C[C@@H](CN1CCC1)C(=O)NC(C)(C)c1ccccc1Cl` (single isomer, unassigned) [Example 134]: the EC50 is 1.26 nM.
For the compound `C[C@H](CN1CCCC1)C(=O)NC(C)(C)c1ccccc1Cl` (single isomer, unassigned) [Example 136], the EC50 was 6.31 nM.
The same measure, in the same setting: under `COc1ccc(C(C)(C)NC(=O)[C@H](C)CN2CCC2)cc1` (single isomer, unassigned) [Example 138] stands 12.6 nM; under `Cc1ccccc1C(C)(C)NC(=O)[C@H](C)CN1CCC1` (single isomer, unassigned) [Example 140], 6.31 nM.
Take `Cc1c(F)cccc1C(C)(C)NC(=O)[C@H](C)CN1CCC1` (single isomer, unassigned) [Example 142]: the EC50 is 1.58 nM.
Consider `Cc1cccc(C(C)(C)NC(=O)[C@@H](C)CN2CCC2)c1Cl` (single isomer, unassigned) [Example 145], for which the EC50 was 0.794 nM.
Same read-out and setting: under `COc1c(C)cccc1C(C)(C)NC(=O)[C@H](C)CN1CCC1` (single isomer, unassigned) [Example 146] stands 2.51 nM.
Same read-out and setting: the figure for `Cc1ccc(C(C)(C)NC(=O)[C@@H](C)CN2CCC2)cc1` (single isomer, unassigned) [Example 149] is 3.16 nM; for `C[C@@H](CN1CCC1)C(=O)NC1(c2ccccc2F)CC1` (single isomer, unassigned) [Example 151] it is 7.94 nM; for `C[C@@H](CN1CCC1)C(=O)NC(C)(C)c1cccc(F)c1` (single isomer, unassigned) [Example 153] it is 3.98 nM.

A further experiment deals with T2, SSTR1 (Homo sapiens, UniProt P30872).
T2 construct: purchased Perkin Elmer ES-520-M400UA; host or cells: CHO-K1 membranes
T2 sequence (P30872 whole entry): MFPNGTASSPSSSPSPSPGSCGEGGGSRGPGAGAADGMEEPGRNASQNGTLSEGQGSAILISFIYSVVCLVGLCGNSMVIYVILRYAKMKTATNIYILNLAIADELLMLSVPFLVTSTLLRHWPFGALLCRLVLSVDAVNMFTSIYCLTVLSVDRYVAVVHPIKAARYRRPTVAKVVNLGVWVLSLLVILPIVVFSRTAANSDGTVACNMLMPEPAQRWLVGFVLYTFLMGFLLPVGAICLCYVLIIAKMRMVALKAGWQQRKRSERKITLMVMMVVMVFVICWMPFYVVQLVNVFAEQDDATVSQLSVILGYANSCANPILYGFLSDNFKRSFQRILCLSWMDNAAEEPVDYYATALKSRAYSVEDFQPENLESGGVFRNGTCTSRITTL
As to the kind of experiment: SSTR1 I-125 somatostatin competition binding assay for selectivity versus SSTR1 (CHO-K1 membranes). The following applies: competition with I-125 somatostatin, membranes from CHO-K1 overexpressing SSTR1; read-out: SSTR1 Binding pIC50 (converted). The procedure:
SSTR1 I-125 Somatostatin Competition Binding Assay for Selectivity Versus SSTR1
Membranes from CHO-K1 cells overexpressing SSTR1 are purchased from Perkin Elmer (catalog number ES-520-M400UA). Test compounds are suspended in DMSO and then diluted in assay buffer (25 mM HEPES pH 7.4, 10 mM MgCl2, 1 mM CaCl2), 0.5% BSA) plus 0.4 nM I-125 labeled somatostatin (Perkin Elmer catalog number NEX389). Fifty μL of compound/I-125 somatostatin in assay buffer are added per well to 96-well poly-propylene plate. Then 10 μg of SSTR1 membranes in 50 μL assay buffer are added per well. The plate is incubated for 60 minutes at room temperature. FilterMat A filters (Perkin Elmer catalog number 1450-421) are pre-soaked in 0.5% PEI (Sigma catalog number P3143). The contents of the assay plate are transferred to filters with a TomTech harvester and washed 5 times with 20 mM HEPES, 100 mM NaCl. The filters are dried in a microwave oven then transferred to sample bag containing a scintillator sheet (Perkin Elmer catalog number 1450-441). The scintillator sheets are melted to the filters using a heat block. The filters are then read in a MicroBeta scintillation counter. Binding Ki curves are generated using Activity Base for Screening Data Management and the results are reported as pIC50.
With `Cc1cccc2c(C(C)(C)NC(=O)C[C@H]3CCCCN3C)noc12` (single isomer, unassigned) [Example 43], the IC50 was 3980 nM.
The same measure, in the same setting: under `Cc1cccc2c(C(C)(C)NC(=O)C[C@@H]3CCCCN3C)noc12` (single isomer, unassigned) [Example 44] stands 12600 nM; under `COc1ccccc1C(C)(C)NC(=O)[C@H](C)CN1CCCC1` (single isomer, unassigned) [Example 75], 10000 nM.
As for `Cc1cccnc1OCC1(NC(=O)[C@H](C)[C@@H]2CCCN2C)CC1` (single isomer, unassigned) [Example 127], the IC50 is 7940 nM.
On the same count and under the same terms, the figure for `CN1CCC[C@H]1CC(=O)NC(C)(C)[C@@H]1CCc2ccccc2O1` (single isomer, unassigned) [Example 128] is 10000 nM; for `CN1CCC[C@@H]1CC(=O)NC(C)(C)[C@@H]1CCc2ccccc2O1` (single isomer, unassigned) [Example 131] it is 12600 nM.
Still for that read-out and setting: under `C[C@@H](CN1CCC1)C(=O)NC(C)(C)c1ccccc1Cl` (single isomer, unassigned) [Example 134] stands 6310 nM; under `C[C@H](CN1CCCC1)C(=O)NC(C)(C)c1ccccc1Cl` (single isomer, unassigned) [Example 136], 10000 nM.
The same measure, in the same setting: under `COc1ccc(C(C)(C)NC(=O)[C@H](C)CN2CCC2)cc1` (single isomer, unassigned) [Example 138] stands 15800 nM; under `Cc1ccccc1C(C)(C)NC(=O)[C@H](C)CN1CCC1` (single isomer, unassigned) [Example 140], 12600 nM.
For the compound `Cc1c(F)cccc1C(C)(C)NC(=O)[C@H](C)CN1CCC1` (single isomer, unassigned) [Example 142], the IC50 was 2000 nM.
With `Cc1cccc(C(C)(C)NC(=O)[C@@H](C)CN2CCC2)c1Cl` (single isomer, unassigned) [Example 145], the IC50 was 1260 nM.
In the case of `COc1c(C)cccc1C(C)(C)NC(=O)[C@H](C)CN1CCC1` (single isomer, unassigned) [Example 146], the IC50 is 2510 nM.
`Cc1ccc(C(C)(C)NC(=O)[C@@H](C)CN2CCC2)cc1` (single isomer, unassigned) [Example 149]: the IC50 was 6310 nM.
For the compound `C[C@@H](CN1CCC1)C(=O)NC1(c2ccccc2F)CC1` (single isomer, unassigned) [Example 151], the IC50 was 7940 nM.
Still for that read-out and setting: under `C[C@@H](CN1CCC1)C(=O)NC(C)(C)c1cccc(F)c1` (single isomer, unassigned) [Example 153] stands 6310 nM.
